From patent US20220152117A1, “METHODS OF PROMOTING CELLULAR MATURATION WITH AMPK ACTIVATORS” (UNIVERSITY OF WASHINGTON, priority 2019, published 2022)
“And” between values parts separate entries of the source, which are not always exact repeats. Equal entries are not always repeated. “Also recorded” adds a separate entry of the source.

Assays:
[1] = system: hiPSC-derived cardiomyocytes; test: Contractile force assessment on micropost arrays; format: cell-based, human; settings: 1 mM AICAR for one week
Method: Contractile force was assessed using micropost arrays, following a procedure similar to previously reported studies on cardiomyocytes^2, 31, 32. The process used to fabricate the micropost arrays is described in detail elsewhere^33, 34. The microposts (6.45 μm in height, 2.3 μm in diameter, 6 μm center-to-center post spacing) were cast onto 25 mm diameter round #1 glass coverslips (VWR®). To enable cell attachment, the tips of these microposts were stamped with 50 μg/ml of mouse laminin (Life Technologies®) via microcontact printing, while the remaining surfaces of the micropost array were fluorescently stained with BSA conjugates with Alexa Fluor 594 and blocked with 0.2% Pluronic F-127 (in PBS)^34. Twenty days following differentiation, hiPSC-derived cardiomyocytes were seeded onto the micropost arrays in Attoflour chambers at a density of approximately 500,000 cells per chamber (˜100,000 cells/cm^2), in RPMI media supplemented with 5% fetal bovine serum. After 24 hours, the medium was replaced with serum-free RPMI-B27 plus insulin, which then was exchanged every other day. Beginning two days after seeding, half of the substrates were treated with 1 mM AICAR for one week. Prior to live imaging, the media was exchanged to Tyrode's buffer. Individual cardiomyocyte twitch forces were recorded under phase light using high-speed video microscopy in a live cell chamber at 37° C., as previously described^32. Only the contractile forces of single cardiomyocytes (no junctions with adjacent cells) with obvious beating activity were assessed. Post deflections were optically measured at approximately 100 frames/sec on a Nikon Ti-E™ upright microscope with a 60× water immersion objective. A custom-written MATLAB™ code was used to compare each time frame of the video to a reference fluorescent image taken at the base of the posts. Contractile forces were subsequently calculated by multiplying the deflection of each microposts by its bending stiffness: F=kδ (1) where F is the force at a single micropost, k is the post's bending stiffness (44.54 nN/μm for this study), and δ is the horizontal distance between the centroid of the post's tip and the centroid of the post's base. The total contractile force for each cardiomyocyte was calculated as the sum of the forces at each post beneath it. The passive tension, or baseline force, was defined as the contractile force when a cardiomyocyte was at rest, i.e. in between beats. The total twitch force was defined as the difference between the peak contractile force (achieved during a twitch) and the passive tension. Additionally, the average twitch force per post was analyzed in order to normalize the total twitch force by cell area. The average twitch force per post was calculated as the total twitch force divided by the number of posts underneath a cardiomyocyte. Passive tension, total twitch force, average twitch force per post, and beating frequency were used to compare the independent biological replicates (N=2, with 16-38 cells per independent biological replicate).

hiPS-HLCs = test: RT-PCR of hepatic and mitochondrial-related genes in hepatocyte-like cells; format: cell-based, human
Method: Undifferentiated human IMR90-induced pluripotent stem cells, originally derived from lung fibroblasts^22 (James A. Thomson, University of Wisconsin-Madison), were expanded using mouse embryonic fibroblast-conditioned medium supplemented with 5 ng/ml basic fibroblast growth factor. Cardiomyocytes were obtained using a previously described protocol^2 that involves the serial application of activin A and bone morphogenetic protein-4 (BMP4) under serum-free, monolayer culture conditions. The cultures were also supplemented with the Wnt agonist CHIR99021 in the early stages of differentiation followed by the Wnt antagonist Xav939. In this study, cardiomyocytes derived from human undifferentiated IMR90-induced stem cells were used, and for brevity, these are referred to human induced pluripotent stem cell-derived cardiomyocytes (hiPSC-CM). After 20 days of in vitro differentiation, the cells were dispersed using 0.05% trypsin-EDTA and re-plated. Cultures were fed every other day thereafter with serum-free RPMI-B27 plus insulin. Only cell preparations containing >80% cardiac troponin T-positive cardiomyocytes (by flow cytometry) were used for the current investigation. Twenty days after induction, cells were re-plated at different densities based on experimental purposes (described below). Cells were treated with 1 mM AICAR for two weeks (unless otherwise mentioned specifically), with media being changed every other day. This study was mainly performed with cardiomyocytes-derived from IMR90 iPS cell line. However, cardiomyocytes-derived from another iPS cell line, WTC11 iPS cells^22, and a human embryonic stem cell line (hESC), RUES2 cells, were also used for some of the experiments. Rues and WTC undifferentiated cells were cultured with mTeSR medium. Similar differentiation protocols as to IMR90 were used to obtain cardiomyocytes from Rues and WTC cells. Only cell preparations containing >80% cardiac troponin T-positive cardiomyocytes (by flow cytometry) were used for the current investigation. Undifferentiated iPSCs were maintained on StemAdhere™ (Primorigin Biosciences®) with mTesR medium supplemented with bFGF. The formation of hepatocyte-like cells from iPSCs was achieved as described previously^24,25. Briefly, cells were induced to form endoderm by addition of 100 ng/ml Activin A, 10 ng/ml BMP4, and 20 ng/ml FGF2 for two days followed by 100 ng/ml Activin A for an additional three days. Hepatic progenitor cells were formed by supplementing the medium with 20 ng/ml BMP4 and 10 ng/ml FGF2. Next, 20 ng/ml HGF was added between days 10 and 15 and induced maturation of the hepatocytes by culturing the cells in HCM medium (Lonza®) containing 20 ng/ml Oncostatin M until day 20. In some experiments, the differentiation medium was supplemented with 1.0 mM AICAR between days 15 and 20. hiPSC-derived neurons were generated following previously published protocols^26, 27, 28. Briefly, hiPSCs from a control individual^28 and from a patient with the duplication of the amyloid precursor protein (APP) gene^27 were cultured on mouse embryonic fibroblasts in the presence of 20 ng/ml bFGF (Peprotech®). Neural stem cells were generated by hiPSC co-culture on the mouse stromal cell line PA6 in the presence of 0.5 ug/ml Noggin (Peprotech®) and 10 uM SB431542 (Peprotech®). After 12 days, neural rosettes were dissociated and FACS sorted for the cell surface markers CD184/CD24^+; CD44/CD271^−. Neural stem cells were propagated in 20 ng/ml bFGF and neuronal differentiation was induced by the withdrawal of bFGF and the addition of 20 ng/ml BDNF (Peprotech®), 20 ng/ml GDNF (Peprotech®), […] dbCAMP (Peprotech®).
Total RNA was isolated using the Qiagen RNeasy Kit™, and mRNA was reverse transcribed using the Superscript™ III first strand cDNA synthesis kit (Invitrogen®). All primers were purchased from Real Time Primers, and qRT-PCR was performed using SYBR™ green chemistry and an ABI 7900HT instrument or TAQMAN™ with BIORad CXF384™. […]

[2] = HLCs treated at day 20 with 1 mM AICAR for additional seven days

Which beating frequency ([1]; control 0.87±0.07) does the source give for NC(=O)c1ncn([C@@H]2O[C@H](CO)[C@@H](O)[C@H]2O)c1N [AICAR, 5-amino-4-imidazolecarboxamide riboside-1-β-D-ribofuranoside] here?
The beating frequency was 0.49±0.04 Hz.

What about the twitch force ([1]; control 9.7±0.7) of the same compound?
The twitch force was 14.1±1.6 nN/cell and ~14.1 nN/cell.

What about the passive tension ([1]; control 82.68±4.35) of the same compound?
The passive tension was 114.77±7.93 nN/cell.

And the “cellular size on microposts” value ([1]; control 213±5)?
The value was 260±11 μm^2.

What about the “average twitch force per post” value ([1]; controls ~1.2) of the same compound?
The value was roughly 1.4 nN/post.

And the “HNF4α expression, treatment day 15 to 17” value (hiPS-HLCs; 1 mM AICAR day 15 to 17)?
The value was “significantly down-regulated”.

What about the “other mature hepatic-related genes (SLC10A1, APOH, ASGR, APOB, and PXR)” value (hiPS-HLCs; 1 mM AICAR day 15 to 17) of the same compound?
The value was “no significant difference”.

And the “AFP expression, treatment day 15 to 17” value (hiPS-HLCs; 1 mM AICAR day 15 to 17, endpoint day 20)?
Its value is “diminished; also recorded: significantly reduced”.

And the “ALB expression, treatment day 15 to 17” value (hiPS-HLCs; 1 mM AICAR day 15 to 17, endpoint day 20, b310 calls the change non-significant)?
The value was “enhanced”.

And the “ALB expression, longer treatment” value (hiPS-HLCs; 1 mM AICAR, longer treatment between days 15 and 20, endpoint day 20)?
The value was “adversely affected”.

What about the “PDK4 expression in HLCs” value (hiPS-HLCs; [2]) of the same compound?
The value was “significantly increased”.

And the “PGC1α, ERRa, PPARα, TFAM and HNF4α expression in HLCs” value (hiPS-HLCs; [2])?
The value was “no significant effect”.
